The results in this text go back to PMC8780964, “Evaluation of the Pharmacokinetics of the Pancreastatin Inhibitor PSTi8 Peptide in Rats: Integration of In Vitro and In Vivo Findings” (Molecules, 2022).

The data set in a line: Microsomal metabolic stability study. The format is in vitro ADME, SD rats. The following applies: 25 µM, RLM. On the procedure:
RLM was prepared from SD rats from our lab, as previously reported. In vitro metabolic stability of PSTi8 was determined using RLM. The reaction milieu was prepared by adding 50 mM Tris buffer (pH 7.4), 40 mM MgCl2 pre-incubated at 37 °C along with RLM (0.5 mg/mL) and spiked at a concentration (5 µM) of PSTi8. The reaction was started with NADPH (1 mM) and without NADPH (negative control using Tris buffer). A total of 100 µL samples were collected at 0, 5, 15, 30, 45 and 60 min, and the reaction was quenched with liquid nitrogen. Samples were processed with the SPE procedure and analyzed using the LC-MS/MS method. Negative control was used to assess the peptide stability in the reaction milieu and the positive control (Testosterone, 25 µM) was incubated to obtain the microsomal activity.

With `C[C@]12CC[C@H]3[C@@H](CCC4=CC(=O)CC[C@@]43C)[C@@H]1CC[C@@H]2O` [testosterone, reference compound], the “half-life of positive control” value was “within the acceptable in-house limits”.
